Entries after “also recorded” stand apart in the source; their conditions may differ.
Tests used:
[1] = system: MDS patient-derived bone marrow cells; experiment: Liquid erythroid differentiation culture of MDS patient-derived bone marrow cells (ex vivo); assay type: cell-based, human; conditions: for erythroid differentiation (CD235a): n=40 MDS patients
Description: These findings prompted further testing to determine whether administration of FF in MDS patient-derived bone marrow (BM) samples improves erythroid differentiation in an ex vivo setting. To explore this, cells isolated from BM aspirates of de-identified MDS patients were procured. Next, the MDS patient-derived BM cells were placed in liquid erythroid differentiation culture, as previously described (Khajuria et al. (2018) Cell 173: 90-103), with or without FF treatment. […] To further validate this observation, the impact of FF from another vendor (Sigma) was tested on MDS patient-derived cells. […] Next, CD34+ progenitors were FACS-sorted from the MDS patient-derived BM aspirates and seeded in semi-solid methylcellulose culture media with vehicle (DMSO) or FF treatment. […] Therefore, the FDA-approved drug formoterol fumarate could be repurposed to reverse anemia in a range of hematological disorders.
(§1) CD34+ primary human hematopoietic stem and progenitor cells (HSPCs) were obtained from Fred-Hutchinson Cancer Research center, Seattle, USA and cultured, as previously described. Formoterol fumarate was purchased from Selleckchem (#S2020) and Sigma (#F9552), dissolved (in DMSO) and stored as per manufacturer's instructions, and used at the final working concentrations as indicated. Frozen BM aspirates from de-identified MDS patients were obtained using our IRB approved protocol (#21-632) from the Pasquarello tissue bank at DFCI.

[2] = system: PHZ-induced lethal hemolytic anemia mice; experiment: PHZ lethal dose (135 mg/kg), FF oral gavage; assay type: in vivo; conditions: 0.1/0.5 mg/kg o.g.; PHZ 135 mg/kg; FIG. 54
Description: Log-rank (Mantel-Cox) test. n=5 mice per group. All comparisons were done w.r.t. vehicle (DMSO) treated controls.

[3] = system: phenylhydrazine (PHZ)-mediated stress-induced anemic mice; experiment: Sublethal PHZ (60 mg/kg)-induced hemolytic anemia, male mice, FF i.p.; assay type: in vivo
[4] = system: mice; conditions: cited from earlier work
[5] = system: mitochondrial biogenesis; conditions: cited from earlier work
[6] = system: APC KD HSPCs; experiment: Erythropoiesis in APC knockdown HSPCs; assay type: cell-based, human; conditions: FIG. 46
Description: (§2) Primary human HSPCs were genome-edited, as previously described (Ghosh, S., Raundhal, M., Myers, S. A., Carr, S. A., Chen, X., Petsko, G. A., and Glimcher, L. H. (2022). Identification of RIOK2 as a master regulator of human blood cell development. Nat Immunol 23, 109-121).

[7] = system: RIOK2 KD HSPCs; experiment: Erythroid differentiation in RIOK2 knockdown HSPCs; assay type: cell-based, human; conditions: RIOK2 KD HSPCs vs DMSO; FIG. 6B, FIG. 45
Description: Since RIOK2-deficient primary human HSPCs effectively model impaired erythropoiesis leading to anemia (Ghosh et la. (2022) Nat Immunol 23: 109-121), it was next investigated whether treatment with formoterol fumarate (FF) alleviates anemia in this in vitro model. To address this, RIOK2-proficient and deficient primary human HSPCs via CRISPR-Cas9 based genome-editing were generated (FIG. 6A), as previously described (Ghosh et al. (2022) Nat Immunol 23: 109-121). […] Since RPS14 deletion is reported to be MDS-genic (Ebert et al. (2008) Nature 451: 335-339; Schneider et al. (2016) Nat Med 22: 288-297), RPS14 was similarly knocked down in primary human HSPCs (FIG. 6C).
as §2

[8] = system: primary human HSPCs; experiment: Erythroid differentiation liquid culture of primary human HSPCs, flow cytometry; assay type: cell-based
Procedure: To address this, primary human HSPCs were treated with varying doses of FF (Selleckchem). […] To ascertain if FF administration plays a role further upstream in the erythroid differentiation pathway, methylcellulose colony-formation assays were performed.
as §1, with “indicated.” for “indicated. Frozen BM aspirates from de-identified MDS patients were obtained using our IRB approved protocol (#21-632) from the Pasquarello tissue bank at DFCI.”

[9] = system: phenylhydrazine (PHZ)-treated mice; experiment: FF/Arf i.p. in PHZ-treated mice at sub-lethal dose of 60 mg/kg; assay type: in vivo
[10] = system: cisplatin-treated CKD mice; experiment: FF i.p. in cisplatin-driven chronic kidney disease (CKD) mice; assay type: in vivo
Procedure: Comparisons are shown in between cisplatin+FF treated mice as compared to cisplatin+ vehicle treated mice.
FF treatment at a low dose of 0.3 mg/kg 3× weekly (i.p.) alleviates RBC parameters, such as % changes in (FIG. 78A) hematocrit% (HCT%) (FIG. 78B) hemoglobin (Hb) and (FIG. 78C) RBCs in mice with cisplatin-driven CKD. * p<0.05, 2-way ANOVA. n=4-5 mice per group. Comparisons are shown in between cisplatin+FF treated mice as compared to cisplatin+ vehicle treated mice.

[11] = system: ovariectomized rat models; conditions: ovariectomized rat models (Kellenberger et al. 1998); cited from earlier work
[12] = 0.1/0.3 mg/kg, PHZ 60 mg/kg, FIG. 26

Compound: COc1ccc(C[C@@H](C)NC[C@H](O)c2ccc(O)c(NC=O)c2)cc1.O=C(O)/C=C/C(=O)O [FF, (E)-but-2-enedioic acid;N-[2-hydroxy-5-[(1R)-1-hydroxy-2-[[(2R)-1-(4-methoxyphenyl)propan-2-yl]amino]ethyl]phenyl]formamide]
- myelopoiesis/megakaryopoiesis ([1]; 40 MDS patient-derived cells, FIG. 9): does not affect myelopoiesis/megakaryopoiesis
- erythroid differentiation (CD235a) ([1]; FF from Selleckchem, FIG. 8A): significantly enhanced erythroid differentiation in BM cells in the majority of MDS patients; also recorded: enhances erythroid differentiation in MDS patient-derived bone marrow cells
- erythroid differentiation (CD235a) ([1]; FF from Sigma, FIG. 8B): boosted erythropoiesis in the majority of MDS patients; also recorded: enhances erythroid differentiation in MDS patient-derived bone marrow cells
- survival (Kaplan-Meier) [2]: confers striking survival benefits
- body weights (absolute and % change) ([3]; 0.1/0.3 mg/kg i.p., PHZ 60 mg/kg, male, FIG. 22A): marked revival was similarly observed in body weights; also recorded: increases absolute body weights and % change in body weights
- viability of BM cells ([3]; 0.1/0.3 mg/kg, PHZ 60 mg/kg, FIG. 23A): marked increase in viability; also recorded: substantially increases viability
- common myeloid progenitors (CMP) and granulocyte monocyte progenitors (GMP) in BM [3, 12]: not affected
- megakaryocyte erythroid progenitors (MEP) in BM [3, 12]: specifically boosted megakaryocyte erythroid progenitors (MEP); also recorded: substantially increases MEP
- megakaryocytic progenitors (MkP) in BM ([3]; 0.1/0.3 mg/kg, PHZ 60 mg/kg, FIG. 27): no stark differences were observed in megakaryocytic progenitors; also recorded: does not affect megakaryocytic progenitors
- mitochondrial mass in PBMCs (MitoTracker staining) ([3]; Day 4 after PHZ treatment, FIG. 21): increases MitoTracker® Staining
- mitochondrial biogenesis in BM cells (MitoTracker staining) ([3]; FIG. 23B): elevated mitochondrial biogenesis; also recorded: enhances mitochondrial biogenesis
- mitochondrial superoxide production in BM cells (MitoSox staining) ([3]; FIG. 23C): reduced mitochondrial superoxide production; also recorded: significantly reduces mitochondrial superoxide production
- LS-K cells in the bone marrow ([3]; FIG. 25): enhances LS-K cells
- Pre-CFU-E cells in the BM ([3]; FIG. 28): selectively enhances Pre-CFU-E cells
- pro-erythroblasts in the BM ([3]; FIG. 29): selectively enhances pro-erythroblasts
- granulocytic myeloid progenitors (GMP) in bone marrow ([3]; FIG. 41, study not stated in legend): does not affect granulocytic myeloid progenitors (GMP)
- RBC parameters (Hb, HCT %, RBC numbers) in peripheral blood ([3]; PHZ 60 mg/kg, FIG. 22B): consistently improved RBC parameters; also recorded: significantly enhances and sustains RBC parameters
- platelet counts ([3]; PHZ 60 mg/kg, FIG. 22C): no long term impact was observed in the WBC parameters or platelets; also recorded: not statistically significant
- WBC and monocyte counts ([3]; day 4 and over 14 days, PHZ 60 mg/kg, FIG. 22C): no long term impact was observed in the WBC parameters or platelets; also recorded: increases WBC and monocyte counts in the peripheral blood after 4 days of daily i.p. injections but does not sustain the impact over 14 days
- muscle structure and function after injury ([4]; literature): improve muscle structure and function after injury
- muscle mass ([4]; mice (Gehrig et al. 2010; Ryall et al. 2008)): increase muscle mass
- expression of mtDNA encoded genes ([5]; Arif et al. 2019): upregulates the expression of mtDNA encoded genes
- mitochondrial oxygen consumption rates (OCR) ([5]; in vitro and ex vivo (Arif et al. 2019)): promotes mitochondrial oxygen consumption rates (OCR)
- mitochondrial biogenesis ([5]; several in vitro and in vivo models (literature)): reported to augment mitochondrial biogenesis
- erythropoiesis [6]: moderately rescues erythropoiesis
- erythroid differentiation (CD235a) [7]: stimulated erythropoiesis in RIOK2-knockdown (KD) HSPCs; also recorded: to levels comparable with basal erythropoiesis in control cells; also recorded: increases erythroid differentiation (CD235a) in RIOK2 KD HSPCs; also recorded: markedly rescues erythropoiesis
- erythroid differentiation (CD235a) ([8]; 1/5 μM, n=5 healthy donors, FIG. 2): induces erythroid differentiation (CD235a) dose-dependently
- megakaryocytic differentiation (CD41/61) ([8]; 1/5 μM, n=5 healthy donors, FIG. 12): does not influence megakaryocytic differentiation (CD41/61)
- erythroid differentiation ([8]; FF from Selleckchem and Sigma, n=4 healthy donors, FIG. 3A-3B): similarly enhanced erythroid differentiation; also recorded: enhances erythroid differentiation
- erythroid differentiation ([8]; control (RIOK2-proficient) HSPCs, FIG. 6B): consistently enhanced erythroid differentiation in the control HSPCs
- erythroid differentiation (CD235a) ([8]; varying doses FF (Selleckchem) vs 0 μM DMSO, n=3 healthy donors, FIG. 1A): elevated erythroid differentiation in primary human HSPCs in a dose-dependent manner; also recorded: enhances erythroid differentiation (CD235a) dose-dependently
- viability ([8]; varying doses FF vs DMSO, FIG. 1B): without affecting viability, megakaryopoiesis or myelopoiesis; also recorded: does not affect viability
- megakaryocytic (CD41-61) differentiation ([8]; varying doses FF vs DMSO, FIG. 1C): without affecting viability, megakaryopoiesis or myelopoiesis; also recorded: does not affect
- myeloid (CD11b) differentiation ([8]; varying doses FF vs DMSO, FIG. 1D): without affecting viability, megakaryopoiesis or myelopoiesis; also recorded: does not affect
- colony forming unit-erythroid (CFU-e) from BM ([9]; 0.3 mg/kg i.p., FIG. 39A): enhances colony forming unit-erythroid (CFU-e)
- transferrin receptor expression in CFU-e derived from BMPs ([9]; FIG. 39B): transferrin receptor expression is enhanced
- Hemoglobin (Hb) in peripheral blood ([9]; after 7 and 14 days of i.p., FIG. 35): increase Hemoglobin (Hb)
- RBC parameters (HCT % and RBCs) in peripheral blood ([9]; after 7 days of i.p., FIG. 34): increases RBC parameters
- LS-K and LSK cells in bone marrow progenitors ([9]; after 14 days of i.p., FIG. 36A-36B): increase LSK, LS-K, and mitochondrial activity
- mitochondrial membrane potential (TMRE staining) in bone marrow progenitors ([9]; after 14 days of i.p., FIG. 36C): increase LSK, LS-K, and mitochondrial activity
- megakaryocyte erythrocyte progenitors (MEP) in BM ([9]; after 14 days of i.p., FIG. 37A): increase megakaryocyte erythrocyte progenitors (MEP)
- body weights ([9]; i.p., PHZ 60 mg/kg, FIG. 32): enhances body weights
- platelets and WBCs in peripheral blood ([9]; i.p., PHZ 60 mg/kg, FIG. 33): do not affect platelets and WBCs
- % changes in RBC parameters (HCT%, Hb, RBCs) ([10]; 0.3 mg/kg 3× weekly i.p., FIG. 78): rescues anemia
- absolute values of RBC parameters (Hb, HCT %, RBCs) ([10]; 0.3 mg/kg 3× weekly i.p., FIG. 79): elevates RBC parameters
- terminal erythroid progenitors in the BM ([10]; 0.3 mg/kg 3× weekly i.p., FIG. 81A): elevates erythroid progenitors
- serum BUN and creatinine levels ([10]; FIG. 77): does not affect serum BUN and creatinine levels
- WBCs and platelets ([10]; FIG. 80): does not affect WBC parameters
- body weights ([10]; i.p., vs cisplatin+vehicle, FIG. 76): significantly rescues (elevates) body weights
- effects on bone [11]: anabolic effects on bone

From patent publication US12697313B2, “Methods of treating anemia using formoterol or a pharmaceutically acceptable salt thereof” (Dana-Farber Cancer Institute, Inc., priority 2022, dated 2026)
